# Experimental data as given in patent US11214803B2, “Modulators of YAP1 expression” (Ionis Pharmaceuticals, Inc., priority 2019, dated 2022).
# Strand notation (5' to 3'): a small letter for the sugar, then the base; units joined by * are phosphorothioate-linked, units joined directly phosphodiester-linked; [ ] holds rarer units or linkages, { } end groups; capitals alone tell only the bases. k = constrained ethyl (cEt); [5mC] = 5-methylcytosine; d = 2'-deoxy (DNA)
# Test system: Yap1 mRNA
# Assay: Dose-dependent inhibition of human Yap1 in A-431 cells (Example 7, 10,000 cells per well, RTS36584)
# Assay type: cell-based
# Conditions: free uptake
# How it was run: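 Yap1 mRNA was expressed as percent of untreated control after normalization to total RNA (RIBOGREEN), and IC50 was derived by log/linear linear regression. The read-out used primer-probe set RTS36584 roughly 48 hours after free-uptake dosing of oligonucleotides into A-431 cells (10,000 cells/well).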
# [1] = Table 57, 15.6 nM, A-431 cells 10,000 cells per well, 48 hours
# [2] = Table 57, 62.5 nM, A-431 cells 10,000 cells per well, 48 hours
# [3] = Table 57, 4000.00 nM, A-431 cells 10,000 cells per well, 48 hours
# [4] = Table 57, A-431 cells 10,000 cells per well
# [5] = Table 56, 15.6 nM, A-431 cells 10,000 cells per well, 48 hours
# [6] = Table 56, 62.5 nM, A-431 cells 10,000 cells per well, 48 hours
# [7] = Table 56, 4000.00 nM, A-431 cells 10,000 cells per well, 48 hours
# [8] = Table 56, A-431 cells 10,000 cells per well
# [9] = Table 59, 15.6 nM, A-431 cells 10,000 cells per well, 48 hours
# [10] = Table 59, 62.5 nM, A-431 cells 10,000 cells per well, 48 hours
# [11] = Table 59, 4000.00 nM, A-431 cells 10,000 cells per well, 48 hours
# [12] = Table 59, A-431 cells 10,000 cells per well
# [13] = 15.6 nM, A-431 cells, 10,000 cells per well, approximately 48 hours
# [14] = 62.5 nM, A-431 cells, 10,000 cells per well, approximately 48 hours
# [15] = 4000.00 nM, A-431 cells, 10,000 cells per well, approximately 48 hours
# [16] = A-431 cells, approximately 48 hours, linear regression on log/linear plot
substance,measurement,setting,value
958481 (kG*k[5mC]*kA*dA*d[5mC]*dT*dG*dG*d[5mC]*dT*dT*dA*dT*kG*kG*kA; antisense) [compound 958481],"Yap1 mRNA, % UTC",[1],86 % UTC
same,"Yap1 mRNA, % UTC",[2],62 % UTC
same,"Yap1 mRNA, % UTC",[3],14 % UTC
same,IC50,[4],100 nM
958796 (kA*kT*kT*dA*dT*dA*dT*dG*dG*dT*dT*dG*d[5mC]*kT*kT*k[5mC]; antisense) [compound 958796],"Yap1 mRNA, % UTC",[5],91 % UTC
same,"Yap1 mRNA, % UTC",[6],62 % UTC
same,"Yap1 mRNA, % UTC",[7],15 % UTC
same,IC50,[8],130 nM
958403 (antisense k[5mC]*kA*kG*dT*dT*dT*dA*dT*dG*dT*dA*dG*dT*kA*kG*kT) [compound 958403],"Yap1 mRNA, % UTC",[5],94 % UTC
same,"Yap1 mRNA, % UTC",[6],63 % UTC
same,"Yap1 mRNA, % UTC",[7],12 % UTC
same,IC50,[8],120 nM
958533 (kG*k[5mC]*kA*dT*dA*dG*dA*dA*dG*dT*dA*dG*dG*kA*kG*k[5mC]; antisense) [compound 958533],"Yap1 mRNA, % UTC",[9],99 % UTC
same,"Yap1 mRNA, % UTC",[10],61 % UTC
same,"Yap1 mRNA, % UTC",[11],12 % UTC
same,IC50,[12],100 nM
958451 (antisense k[5mC]*kA*k[5mC]*dG*dA*dT*d[5mC]*dT*dG*dA*dT*dG*d[5mC]*k[5mC]*k[5mC]*kG) [compound 958451],"Yap1 mRNA, % UTC",[1],98 % UTC
same,"Yap1 mRNA, % UTC",[2],74 % UTC
same,"Yap1 mRNA, % UTC",[3],23 % UTC
same,IC50,[4],200 nM
958549 (kT*kG*kT*dA*dG*dA*d[5mC]*dA*d[5mC]*dA*dT*dA*d[5mC]*kT*k[5mC]*kT; antisense) [compound 958549],"Yap1 mRNA, % UTC",[13],98 % UTC
same,"Yap1 mRNA, % UTC",[14],78 % UTC
same,"Yap1 mRNA, % UTC",[15],28 % UTC
same,IC50,[16],300 nM
958600 (kG*kT*kA*dG*dA*dT*d[5mC]*dT*dA*dA*dG*dA*dA*kG*k[5mC]*k[5mC]; antisense) [compound 958600],"Yap1 mRNA, % UTC",[13],69 % UTC
same,"Yap1 mRNA, % UTC",[14],44 % UTC
same,"Yap1 mRNA, % UTC",[15],14 % UTC
same,IC50,[16],50 nM
958599 (kT*kT*k[5mC]*dA*dA*dG*dA*dA*dT*dA*d[5mC]*d[5mC]*d[5mC]*kA*kG*kT; antisense) [compound 958599],"Yap1 mRNA, % UTC","Table 61, 15.6 nM, A-431 cells 10,000 cells per well, 48 hours",100 % UTC
same,"Yap1 mRNA, % UTC","Table 61, 62.5 nM, A-431 cells 10,000 cells per well, 48 hours",74 % UTC
same,"Yap1 mRNA, % UTC","Table 61, 4000.00 nM, A-431 cells 10,000 cells per well, 48 hours",16 % UTC
same,IC50,"Table 61, A-431 cells 10,000 cells per well",200 nM
958373 (antisense kA*kG*kG*dT*dG*d[5mC]*dT*dA*dG*d[5mC]*dT*dG*dG*kT*kG*k[5mC]) [compound 958373],"Yap1 mRNA, % UTC",[5],72 % UTC
same,"Yap1 mRNA, % UTC",[6],45 % UTC
same,"Yap1 mRNA, % UTC",[7],17 % UTC
same,IC50,[8],50 nM
958819 (kT*kG*k[5mC]*dT*dT*d[5mC]*dA*dA*d[5mC]*dA*dT*dT*dG*kT*kT*k[5mC]; antisense) [compound 958819],"Yap1 mRNA, % UTC",[13],79 % UTC
same,"Yap1 mRNA, % UTC",[14],63 % UTC
same,"Yap1 mRNA, % UTC",[15],19 % UTC
same,IC50,[16],100 nM
958585 (k[5mC]*kT*k[5mC]*dT*dA*dT*d[5mC]*dA*dA*dG*dG*dT*d[5mC]*k[5mC]*k[5mC]*k[5mC]; antisense) [compound 958585],"Yap1 mRNA, % UTC",[13],95 % UTC
same,"Yap1 mRNA, % UTC",[14],71 % UTC
same,"Yap1 mRNA, % UTC",[15],17 % UTC
same,IC50,[16],200 nM
958798 (kT*kG*k[5mC]*dA*dG*dT*dA*dT*dA*dA*dT*dA*dT*k[5mC]*k[5mC]*kT; antisense) [compound 958798],"Yap1 mRNA, % UTC",[9],101 % UTC
same,"Yap1 mRNA, % UTC",[10],61 % UTC
same,"Yap1 mRNA, % UTC",[11],12 % UTC
same,IC50,[12],100 nM
958550 (k[5mC]*k[5mC]*kT*dG*dT*dA*dG*dA*d[5mC]*dA*d[5mC]*dA*dT*kA*k[5mC]*kT; antisense) [compound 958550],"Yap1 mRNA, % UTC",[13],91 % UTC
same,"Yap1 mRNA, % UTC",[14],60 % UTC
same,"Yap1 mRNA, % UTC",[15],10 % UTC
same,IC50,[16],100 nM
958757 (kG*kT*kG*dA*dT*d[5mC]*dT*dG*d[5mC]*dA*d[5mC]*dA*dT*kT*kG*kT; antisense) [compound 958757],"Yap1 mRNA, % UTC","Table 58, 15.6 nM, A-431 cells 10,000 cells per well, 48 hours",110 % UTC
same,"Yap1 mRNA, % UTC","Table 58, 62.5 nM, A-431 cells 10,000 cells per well, 48 hours",89 % UTC
same,"Yap1 mRNA, % UTC","Table 58, 4000.00 nM, A-431 cells 10,000 cells per well, 48 hours",27 % UTC
same,IC50,"Table 58, A-431 cells 10,000 cells per well",300 nM
